Experimental data: patent publication US20140378513A1, “USE OF FUNGICIDES IN LIQUID SYSTEMS” (priority 2011, published 2014)

Key:
[1] = tested on: Pest in infected Scenedesmus dimorphus culture; assay: Fungicide efficacy on pest control in infected microalgae culture; type: cell-based; conditions: for Rating: rating scale of 0 to 3 by percent efficacy; for positive efficacy in a first trial confirmed in a second trial: Table 6; for Scenedesmus dimorphus Efficacy confirmation: second trial
Description: Failure to treat an infected culture results in the collapse and loss of the microalgae culture. […] Test fungicides are graded on a rating scale of 0 to 3 where a score of 0 represents an efficacy of between 0 and 25%, a score of 1 represents an efficacy of between 26 and 50%, a score of 2 represents an efficacy of between 51 and 75% and a score of 3 represents an efficacy of between 76 and 100%.

microalgae = assay: Ranges of microalgae toxicity (serial dilution of fungicide in growing culture); conditions: range in which fungicide begins to show growth effects on microalgae
Description: The present disclosure provides for the introduction of fungicides at an effective concentration. Effective concentrations may be determined according to manufacturer's instructions or may be determined empirically. An effective concentration of a fungicide is not toxic to the microalgae being cultured in the liquid system. Methods to determine toxicity are known in the art and include serial dilutions of a test fungicide in a growing liquid culture of microalgae. One of skill in the art would understand that different microalgae may have different ranges of toxicity that may be determined by growth of a microalga in the presence of a serial dilution of a fungicide.
Algae are screened for sensitivity to chemicals by preparing 180 ml of a log phase culture. The log phase culture is transferred into a 96 well microtiter plate at an absorbance at 750 nm (OD750 or A750) of ˜0.2. Twenty microliters of media is provided into the top row as a negative control, the middle six rows receive a 20 microliter dilution, which is a 10 fold dilution of the chemical at each transfer, of the chemical across an appropriate concentration gradient, and the bottom row receives 20 microliter of the solvent used to solubilize the pesticide alone as a control. The total volume per well is 200 μl. Each chemical is tested in triplicate. The growth of the algae is tracked daily by measuring the A750. After 8 days, the growth rate of the algae is measured by fitting the growth curve to a log model and deriving the maximum growth rate (r). The impact of the chemical is calculated by comparing the r of the algae at various dilutions of the pesticide to the control.

Scenedesmus dimorphus = assay: Algae sensitivity screen, 96 well, growth rate by A750 over 8 days; type: cell-based
Protocol: (§1) The total volume per well is 200 μl. Each chemical is tested in triplicate.

Scenedesmus species = assay: as above; type: cell-based
Protocol: as §1

Desmid species = assay: as above; type: cell-based
Protocol: as §1

[2] = log phase culture, 10 fold dilutions
[3] = log phase culture, 10 fold dilutions, 8 days
[4] = Tetradesmus dimorphus, read-out: Scenedesmus dimorphus efficacy

| Compound | Rating [1] | Ranges of Microalgae toxicity (microalgae) | Scenedesmus dimorphus toxicity (Scenedesmus dimorphus; [2]) | Scenedesmus species toxicity (Scenedesmus species; [3]) | other results |
| --- | --- | --- | --- | --- | --- |
| CO/C=C(/C(=O)OC)c1ccccc1Oc1cc(Oc2ccccc2C#N)ncn1 [azoxystrobin] | 0 (a score of 0 represents an efficacy of between 0 and 25%) | – | – | – | – |
| O=C(Nc1ccccc1)c1ccccc1I [benodanil, 2-Iodo-N-phenylbenzamide] | 0 (a score of 0 represents an efficacy of between 0 and 25%) | 0.3125-1.25 ppm | 0.3125-1.25 ppm | 0.3125-1.25 ppm | positive efficacy in a first trial confirmed in a second trial [1]: not confirmed; activity at 5 ppm [1, 4]: 38.7% |
| CSC(=O)c1cccc2nnsc12 [benzo(1,2,3)thiadiazole-7-carbothioic acid-5-methyl ester] | – | – | – | – | Scenedesmus dimorphus efficacy ([1]; @ 0.8 ppm, percent of growth of treated culture compared to uninfected control growth rate, first trial): 17.5% @ 0.8 ppm |
| CCC(C)c1cc([N+](=O)[O-])cc([N+](=O)[O-])c1OC(=O)C=C(C)C (stereo not shown) [binapacryl] | – | 0.125-0.5 ppm | 0.125-0.5 ppm | 0.125-0.5 ppm | – |
| O=C(Nc1ccccc1-c1ccc(Cl)cc1)c1cccnc1Cl [boscalid] | 0 (a score of 0 represents an efficacy of between 0 and 25%) | – | – | – | – |
| O=[N+]([O-])C(Br)(CO)CO [bronopol, 2-bromo-2-nitropropane-1,3-diol] | 0 (a score of 0 represents an efficacy of between 0 and 25%) | – | – | – | activity at 5 ppm [1, 4]: 14.3% |
| O=C1C2CC=CCC2C(=O)N1SC(Cl)(Cl)Cl (stereo not shown) [captan] | 0 (a score of 0 represents an efficacy of between 0 and 25%) | 1.953-125 ppm | 1.953-7.813 ppm | 31.25-125 ppm | Desmid species toxicity (Desmid species; [2]): 31.25-125 ppm |
| CC1=C(C(=O)Nc2ccccc2)SCCO1 [carboxine, 6-methyl-N-phenyl-2,3-dihydro-1,4-oxathiine-5-carboxamide] | 0 (a score of 0 represents an efficacy of between 0 and 25%) | 0.977-3.906 ppm | 0-0.244 ppm | 0.244-0.977 ppm | Desmid species toxicity (Desmid species; [2]): 0.977-3.906 ppm; positive efficacy in a first trial confirmed in a second trial [1]: not confirmed; activity at 5 ppm [1, 4]: 24.6% |
| Cc1ccc(-c2c(Cl)nc(C#N)n2S(=O)(=O)N(C)C)cc1 [cyazofamid] | 0 (a score of 0 represents an efficacy of between 0 and 25%) | 0.03125-0.125 ppm | – | – | Desmid species toxicity (Desmid species; Desmid species): 0.125-0.500 ppm; Scenedesmus dimorphus toxicity (Scenedesmus dimorphus; Scenedesmus dimorphus): 0.03125-0.125 ppm; Scenedesmus species toxicity (Scenedesmus species; Scenedesmus species, 8 days): 0.03125-0.125 ppm |
| CCNC(=O)NC(=O)/C(C#N)=N/OC [cymoxanil] | 0 (a score of 0 represents an efficacy of between 0 and 25%) | – | – | – | – |
| Cc1cc(C2CC2)nc(Nc2ccccc2)n1 [cyprodinil, 4-Cyclopropyl-6-methyl-N-phenylpyrimidin-2-amine] | 0 (a score of 0 represents an efficacy of between 0 and 25%) | – | – | – | activity at 2 ppm [1, 4]: 8.1% |
| N#CC(Br)(Br)C(N)=O [dibromocyanoacetamide, 2,2-dibromo-2-cyanoacetamide] | 0 (a score of 0 represents an efficacy of between 0 and 25%) | – | – | – | positive efficacy in a first trial confirmed in a second trial [1]: not confirmed; activity at 5 ppm [1, 4]: 35.4% |
| CNC(=O)/C(=N/OC)c1ccccc1COc1cc(C)ccc1C [dimoxystrobin] | 0 (a score of 0 represents an efficacy of between 0 and 25%) | 0.004-0.0625 ppm | 0.0156-0.0625 ppm | 0.0156-0.0625 ppm | Desmid species toxicity (Desmid species; [2]): 0.004-0.0156 ppm |
| N#Cc1sc2c(=O)c3ccccc3c(=O)c=2sc1C#N [dithianon, 5,10-dioxobenzo[g][1,4]benzodithiine-2,3-dicarbonitrile] | 2 (a score of 2 represents an efficacy of between 51 and 75%) | 0.625-2.5 ppm | – | – | Scenedesmus dimorphus toxicity (Scenedesmus dimorphus; Scenedesmus dimorphus): 0.625-2.5 ppm; Scenedesmus dimorphus Efficacy confirmation ([1]; @ 5 ppm): 52.2% @ 5 ppm; activity at 5 ppm [1, 4]: 37% |
| CC1CN(C2CCCCCCCCCCC2)CC(C)O1 (stereo not shown) [dodemorph] | 0 (a score of 0 represents an efficacy of between 0 and 25%) | 0.195-0.781 ppm | 0.195-0.781 ppm | 0.195-0.781 ppm | – |
| CCCCCCCCCCCCNC(=N)N [dodine, dodecylguanidinium acetate] | 3 (a score of 3 represents an efficacy of between 76 and 100%) | – | – | – | Scenedesmus dimorphus Efficacy confirmation ([1]; @ 2 ppm): 100% @ 2 ppm; activity at 2 ppm [1, 4]: 93.9% |

| Compound | Rating [1] | Ranges of Microalgae toxicity (microalgae) | Scenedesmus dimorphus toxicity (Scenedesmus dimorphus; [2]) | Scenedesmus species toxicity (Scenedesmus species; [3]) | other results |
| --- | --- | --- | --- | --- | --- |
| OC(c1ccc(Cl)cc1)(c1cncnc1)c1ccccc1Cl (stereo not shown) [fenarimol, (2-chlorophenyl)-(4-chlorophenyl)-pyrimidin-5-ylmethanol] | 0 (a score of 0 represents an efficacy of between 0 and 25%) | 0.0489-0.195 ppm | 0.0489-0.195 ppm | 0.0489-0.195 ppm | positive efficacy in a first trial confirmed in a second trial [1]: not confirmed; activity at 2 ppm [1, 4]: 31% |
| CC1(C(=O)Nc2ccc(O)c(Cl)c2Cl)CCCCC1 [fenhexamid] | 0 (a score of 0 represents an efficacy of between 0 and 25%) | 15.63-62.5 ppm | – | – | Desmid species toxicity (Desmid species; Desmid species): 15.63-62.5 ppm |
| CC(Cc1ccc(C(C)(C)C)cc1)CN1CCCCC1 (stereo not shown) [fenpropidin, 1-[3-(4-tert-butylphenyl)-2-methylpropyl]piperidine] | 0 (a score of 0 represents an efficacy of between 0 and 25%) | 0.00195-1.953 ppm | 0.00195-0.0078 ppm | – | Desmid species toxicity (Desmid species; [2]): 0.031-0.125 ppm; Scenedesmus species toxicity (Scenedesmus species; cell marked (ppb)): 0.488-1.953 ppb; positive efficacy in a first trial confirmed in a second trial [1]: not confirmed; activity at 0.8 ppm [1, 4]: 18.5% |
| CCO[PH](=O)O [fosetyl-aluminum (100 mg), fosetyl-aluminum] | 0 (a score of 0 represents an efficacy of between 0 and 25%) | – | – | – | – |
| CO/N=C(/C(=O)OC)c1ccccc1COc1ccccc1C [kresoxim-methyl] | 0 (a score of 0 represents an efficacy of between 0 and 25%) | – | – | – | – |
| COCC(=O)N(c1c(C)cccc1C)C(C)C(=O)OC (stereo not shown) [metalaxyl] | 0 (a score of 0 represents an efficacy of between 0 and 25%) | – | – | – | – |
| O=C(Nc1ccccc1)N(Cc1ccc(Cl)cc1)C1CCCC1 [pencycuron] | 0 (a score of 0 represents an efficacy of between 0 and 25%) | 0.781-12.5 ppm | 3.125-12.5 ppm | 0.781-3.125 ppm | Desmid species toxicity (Desmid species; [2]): 3.125-12.5 ppm |
| CCCOC(=O)NCCCN(C)C [propamocarb] | 0 (a score of 0 represents an efficacy of between 0 and 25%) | 3.906-62.5 ppm | 15.63-62.5 ppm | 3.906-15.63 ppm | Desmid species toxicity (Desmid species; [2]): 3.906-15.625 ppm |
| CCCC1COC(Cn2cncn2)(c2ccc(Cl)cc2Cl)O1 (stereo not shown) [propiconazole, 1-[[2-(2,4-dichlorophenyl)-4-propyl-1,3-dioxolan-2-yl]methyl]-1,2,4-triazole] | 0 (a score of 0 represents an efficacy of between 0 and 25%) | – | – | – | Scenedesmus dimorphus Efficacy confirmation ([1]; @ 0.8 ppm): 18.6% @ 0.8 ppm; activity at 0.32 ppm [1, 4]: 30.6% |
| OC(Cc1ccccc1Cl)(Cn1nc[nH]c1=S)C1(Cl)CC1 (stereo not shown) [prothioconazole] | 0 (a score of 0 represents an efficacy of between 0 and 25%) | – | – | – | – |
| CC(C)(C)C(O)(CCc1ccc(Cl)cc1)Cn1cncn1 (stereo not shown) [tebuconazole] | 0 (a score of 0 represents an efficacy of between 0 and 25%) | – | – | – | – |
| COC(=O)NC(=S)Nc1ccccc1NC(=S)NC(=O)OC [thiophanate-methyl, methyl N-[[2-(methoxycarbonylcarbamothioylamino)phenyl]carbamothioyl]carbamate] | 0 (a score of 0 represents an efficacy of between 0 and 25%) | – | – | – | activity at 5 ppm [1, 4]: 9.6% |
| CON=C(C(=O)OC)c1ccccc1CON=C(C)c1cccc(C(F)(F)F)c1 [trifloxystrobin] | 0 (a score of 0 represents an efficacy of between 0 and 25%) | – | – | – | – |
| O=CNC(N1CCN(C(NC=O)C(Cl)(Cl)Cl)CC1)C(Cl)(Cl)Cl (stereo not shown) [triforin] | 0 (a score of 0 represents an efficacy of between 0 and 25%) | – | – | – | – |
| dinocap | 0 (a score of 0 represents an efficacy of between 0 and 25%) | 0.0039-0.0625 ppm | 0.0039-0.0156 ppm | 0.0156-0.0625 ppm | – |
| mancozeb | 0 (a score of 0 represents an efficacy of between 0 and 25%) | – | – | – | – |
